Measurements as given in ChEMBL document CHEMBL1795220, “Antifungal quinazolinones from marine-derived Bacillus cereus and their preparation” (2011).
Converted amounts (≈) assume the structure as drawn.

Tested on: Candida albicans
Experiment: Antifungal activity against Candida albicans after 12 hrs by agar dilution method
Type: functional

SMILES | MIC [µM]
Oc1nc(Cc2ccccc2)nc2ccccc12 | 10.6 (≈ 2.5 µg/mL)
CCCC[C@@H](CC)c1nc2ccccc2c(=O)[nH]1 | 2.5 (≈ 0.611 µg/mL)
CCCC[C@H](CC)c1nc2ccccc2c(=O)[nH]1 | 1.3 (≈ 0.318 µg/mL)
Cc1nc2ccccc2c(=O)[nH]1 | 15.6 (≈ 2.5 µg/mL)
CCCC[C@@H](CC)C1NC(=O)c2ccccc2N1 (mixture of isomers) | 2.5
CCCC[C@H](CC)C1NC(=O)c2ccccc2N1 (mixture of isomers) | 5
CCCCC(CC)c1nc2ccccc2c(=O)[nH]1 (racemic) | 10.2 (≈ 2.49 µg/mL)
CCCCC(CC)C1NC(=O)c2ccccc2N1 (racemic) | 10.1 (≈ 2.49 µg/mL)
CC(=O)N1CCN(c2ccc(OCC3COC(Cn4ccnc4)(c4ccc(Cl)cc4Cl)O3)cc2)CC1 (centres undefined) [KETOCONAZOLE] | 0.2 (≈ 0.106 µg/mL)
